PMC9967674, “Characterization and Functional Analysis of OcomOBP7 in Ophraella communa Lesage” (Insects, 2023)

How the values were obtained:
[1] = target: OcomOBP7; assay: Fluorescence competitive binding assay (1-NPN displacement); parameters: species or system Ophraella communa; details: 1-NPN 2 μM; for Ki: Ki = [IC50]/(1 + [1-NPN]/K1-NPN), OcomOBP7 2 μM, pH 7.4, read-out: Ki (dissociation constant); for IC50: recombinant OcomOBP7 2 μM, 50 mM Tris-HCl pH 7.4, ligand 2–20 μM
Protocol: Based on previous research on the volatiles of A. artemisiifolia, 26 standard chemical odors were selected to verify the binding characteristics of OcomOBP7 using a fluorescence binding assay (Table 2).
(§1) Fluorescence competition binding experiments were performed using an F-380 fluorescence spectrophotometer (Gangdong Technology, Tianjin, China), and the quartz cuvette was 1 cm wide. The excitation and emission slits were 10 nm, the sensitivity was 2 s, the emission wavelength range was 360–500 nm, the excitation wavelength was 337 nm, and the scanning speed was 1200 nm/min. The fluorescent probe, 1-NPN, was dissolved in a chromatographic methanol solution at a concentration of 1 mM. The target protein was diluted to 2 μM with 50 mM Tris-HCl (pH 7.4), and 1 mL of protein diluent was added to the cuvette. The 1-NPN fluorescent probe was added to the protein diluent to obtain a final concentration of 2–20 μM and was allowed to stand for 30 s after mixing. The maximum fluorescence value for each addition of 1-NPN was recorded, and three replicates were used. The 1-NPN fluorescent probe was added to the protein diluent at a final concentration of 2 μM, mixed well, and allowed to stand for 30 s. The maximum fluorescence intensity of 1-NPN was recorded. The odorant ligand was then added at a final concentration of 2–20 μM, and the maximum fluorescence value produced by the mixed solution was determined.
The dissociation constants Ki of OcomOBP7 and the fluorescent ligand compounds were calculated using the Scatchard equation. The formula is as follows: Ki = [IC50]/(1 + [1-NPN]/K1-NPN), where [1-NPN] represents the concentration of unbound 1-NPN, and K1-NPN is the binding constant of the OcomOBP7/1-NPN complex.

[2] = target: OcomOBP7; assay: Binding of fluorescent probe 1-NPN to OcomOBP7 (binding curve, Scatchard); parameters: species or system Ophraella communa; details: OcomOBP7 2 μM, 1-NPN 2–20 μM, pH 7.4; read-out: binding constant (Kd) of the protein and probe 1-NPN
Protocol: as §1
The dissociation constants Ki of OcomOBP7 and the fluorescent ligand compounds were calculated using the Scatchard equation. […]

[3] = tested on: O. communa antennae; parameters: method as in a previous experiment; details: ref a previous experiment; cited from earlier work
[4] = tested on: O. communa antennae; assay: Electroantennography (EAG) after RNAi; format: in vivo, Ophraella communa; details: odorant 10 μg/μL in n-hexane, 10 μL; for EAG response of O. communa antennae: after injection of dsRNA (dsOBP7), 48 h; for average EAG response of O. communa antennae: dsEGFP control group, 48 h after injection
Protocol: dsRNA templates were synthesized by PCR using primers containing the T7 promoter sequence as templates. dsRNA was synthesized in vitro using a T7 RNAi Transcription Kit (Ambion Inc., Waltham, MA, USA) according to the manufacturer’s instructions. dsRNA was dissolved in DEPC water and its concentration determined using a Nanophotometer P330 (Implen, Germany). The quality of RNA was determined using 1% gel electrophoresis. Female and male adults with an initial emergence of <12 h were injected. A Nanoliter 2000 microinjector (WPI, Sarasota, FL, USA) was used to inject 1 ng of dsRNA into the pronotum of beetles. dsEGFP was used as a control. After injection, the beetles were kept in Petri dishes and fed fresh A. artemisiifolia leaves daily.
Based on the fluorescence binding experimental results, α-pinene, ocimene, and myrcene were used for the electrophysiological experiments. […] Therefore, the odorants in this experiment were dissolved in n-hexane at a final concentration of 10 μg/μL, with n-hexane alone serving as a blank control. Filter paper strips with 10 μL of odorant were placed in a Pasteur Pipette for EAG experiments. The head and end of one antenna of the O. communa adult were cut off with a blade 48 h after the injection of dsRNA. A glass electrode filled with KCl conductivity liquid was inserted into the incision of the head of the O. communa and then connected to the electroantennogram system. The antenna incision was connected to a glass electrode at the other end using a micromanipulator. Each odorant was stimulated for 0.2 s with an interval of more than 30 s. Each treatment consisted of more than 20 biological replicates. Finally, the response curve was recorded using the EAG2000 software.

[5] = tested on: O. communa; parameters: method as in previous experiment results (unpublished data); details: ref previous experiment results (unpublished data); cited from earlier work

Compound	Ki [1]	IC50 [1]	Kd [2]	activation of antennal response via the EAG method [3]	EAG response of O. communa antennae [4]	average EAG response of O. communa antennae [4]	attraction of the beetles [5]
C=C(C)C1CC=C(C)CC1 (racemic) [DL-Limonene]	2.84 ± 0.2 µM	4.48 µM	–	–	–	–	–
c1ccc(Nc2cccc3ccccc23)cc1 [1-NPN]	–	–	1.47 ± 0.2 µM	–	–	–	–
C=CC(=C)CC/C=C(\C)CCC=C(C)C [(E)-β-farnesene]	0.48 ± 0.04 µM	0.76 µM	–	cannot activate the antennal response	–	–	–
C=C(C)[C@H]1CC=C(C)CC1 [(R)-(+)-Dipentene]	2.22 ± 0.11 µM	3.5 µM	–	–	–	–	–
CC(=O)OC1CC2CCC1(C)C2(C)C (stereo not drawn) [Bornyl acetate]	20.37 ± 0.07 µM	32.2 µM	–	–	–	–	–
C=C1C2CCC(C2)C1(C)C (stereo not drawn) [Camphene]	9.85 ± 0.66 µM	15.5 µM	–	–	–	–	–
C=CC(=C)CCC=C(C)C [Myrcene]	3.97 ± 0.85 µM	6.26 µM	–	–	0.09 ± 0.01	0.10 ± 0.01	significantly attract
C=CC(C)=CCC=C(C)C [Ocimene]	1.23 ± 0.11 µM	1.94 µM	–	–	0.14 ± 0.01	0.19 ± 0.01	significantly attract
C=C1CCC2(C(C)C)CC12 (stereo not drawn) [Sabinene]	4.75 ± 0.14 µM	7.49 µM	–	–	–	–	–
CC1=CCC(C(C)C)=CC1 [Y-Terpinene]	4.7 ± 0.32 µM	7.42 µM	–	–	–	–	–
CCCCCCCC [n-Octane]	0.67 ± 0.12 µM	1.05 µM	–	–	–	–	–
CC1=CCC2CC1C2(C)C (stereo not drawn) [α-Pinene]	6.55 ± 0.05 µM	10.3 µM	–	–	0.28 ± 0.02	0.36 ± 0.03	significantly attract
CC1=CC[C@H](C(C)C)C=C1 [α-phellandrene]	2.91 ± 0.42 µM	4.59 µM	–	–	–	–	–
C=C1CCC2CC1C2(C)C (stereo not drawn) [β-Pinene]	10.9 ± 0.59 µM	17.2 µM	–	–	–	–	–
(S)-(-)-Limonene	2.55 ± 0.4 µM	4.02 µM	–	–	–	–	–
